Test results reported in ChEMBL document CHEMBL5584321, “Chemoenzymatic Synthesis of DNP-Functionalized FGFR1-Binding Peptides as Novel Peptidomimetic Immunotherapeutics for Treating Lung Cancer” (J Med Chem, 2024).
pKd: −log10 of the molar value. Calls of active or inactive are those of the source. The rule behind the calls is not given here. Where a SMILES comes first, the peptide text is derived from it. The star is where a group is joined. X1 = O=[N+]([O-])c1ccc(OCCOCCOCCOCCOCCOCCN*)c([N+](=O)[O-])c1

Assays:
[1] = Toxicity in BALB/c mouse xenografted with human NCI-H1581 cells assessed as inflammation in liver at 20 mg/kg,SC administrated once daily for 12 days by hematoxylin and eosin staining based analysis; assay type: organism-based; conditions: in vivo, 288 h, time 12 day
[2] = system: L6; test: Binding affinity to human full-length wild type FGFR1c stably expressed in rat L6 cells assessed as fold change in fluorescence intensity at 10 uM by antibody recruiting based flow cytometry relative to Pep1; assay type: cell-based
[3] = Hepatotoxicity in BALB/c mouse xenografted with human NCI-H1581 cells assessed as change in ALT level at 20 mg/kg,SC administrated once daily for 12 days; assay type: toxicity, organism-based; conditions: in vivo, 288 h, time 12 day
[4] = Binding affinity to CM5 sensor chip immobilized human full-length wild type FGFR1c assessed as dissociation constant by SPR analysis
[5] = system: NCI-H1581; test: Binding affinity to FGFR1c in human NCI-H1581 cells assessed as fluorescence intensity at 10 uM by antibody recruiting based flow cytometry; assay type: cell-based
[6] = system: NCI-H1581; test: Antitumor activity against human NCI-H1581 cells xenografted BALB/c mouse model assessed as inhibition of tumor growth at 20 mg/kg,SC administrated once daily for 12 days relative to control; assay type: functional; conditions: NCI-H1581, 288 h, time 12 day
[7] = system: L6; test: Induction of apoptosis in FGF2-induced rat L6 cells stably expressing human full-length FGFR1c assessed as upregulation of cleaved caspase-3 expression at 50 uM incubated for 24 hrs by Western blotting analysis; assay type: functional, cell-based
[8] = Toxicity in BALB/c mouse xenografted with human NCI-H1581 cells assessed as inflammation in heart at 20 mg/kg,SC administrated once daily for 12 days by hematoxylin and eosin staining based analysis; assay type: organism-based; conditions: in vivo, 288 h, time 12 day
[9] = Renal toxicity in BALB/c mouse xenografted with human NCI-H1581 cells assessed as change in urea level at 20 mg/kg,SC administrated once daily for 12 days; assay type: organism-based; conditions: in vivo, 288 h, time 12 day
[10] = system: NCI-H1581; test: Induction of cell lysis in human NCI-H1581 cells at 1 uM incubated for 1 hr by complement dependent cytotoxicity based CCK-8 assay relative to control; assay type: functional

CC(C)C[C@H](NC(=O)[C@H](C)NC(=O)[C@@H](NC(=O)[C@H](Cc1ccc(O)cc1)NC(=O)[C@H](Cc1c[nH]c2ccccc12)NC(=O)[C@H](CO)NC(=O)[C@H](CO)NC(=O)[C@H](Cc1ccc(O)cc1)NC(=O)[C@H](CCCCN)NC(=O)[C@H](CCCNC(=N)N)NC(=O)[C@H](CO)NC(=O)[C@H](CCCNC(=N)N)NC(=O)[C@@H](N)Cc1ccc(O)cc1)C(C)C)C(=O)N[C@@H](CCCCN)C(=O)N[C@@H](CCCNC(=N)N)C(=O)N[C@@H](CC(C)C)C(=O)N1CCC[C@H]1C(=O)N[C@@H](CCC(=O)O)C(=O)N[C@H](C(=O)NCC(=O)NCC(=O)NCC(=O)NCCOCCOCCOCCOCCOCCOc1ccc([N+](=O)[O-])cc1[N+](=O)[O-])[C@@H](C)O (H-YRSRKYSSWYVALKRLPETGGG-X1)
Activity [1]: Non-Toxic
fold change (FC) [2]: 200
Activity [3]: Non-Toxic
pKd [4]: 5.30
Flu intensity [5]: 5.7 10^3No_unit
inhibition in vivo at 20 mg/kg [6]: 72.7%
Activity [7]: Active
Activity [8]: Non-Toxic
Activity [9]: Non-Toxic
Activity [10]: 44.5%
